Earlier results in PubChem BioAssay AID1259409 (Chemical Carcinogenesis Research Information System (CCRIS), 2018).

Tested on: rodent chemically induced tumor inhibition, incidence and multiplicity
Experiment: CCRIS tumor inhibitor studies

In the case of `O=C1O[C@H]([C@@H](O)CO)C(O)=C1O`, the “tumour outcome (control, treated, inhibition, significance)” value (Carcinogen: DIETHYLNITROSAMINE, 55-18-5, Dose [Inhibitor]: 0, 15 G/L IN DRINKING WATER FOR DURATION OF STUDY BEGINNING 1 D PRIOR TO FIRST CARCINOGEN DOSE (STUDY DURATION: 6 MO), Route [Inhibitor]: ORAL, Species: RAT, Strain/Sex: BD6/FEMALE, Target Tissue: Type of Lesion: ESOPHAGUS: TUMOR, Dose [Carcinogen]: 80 MG/KG BW 1/WK FOR 10 WK, Promoter: NONE USED) is listed as 35%, 24%, 31%, not significant, the “tumour outcome (control, treated, inhibition, significance)” value (Carcinogen: DIETHYLNITROSAMINE, 55-18-5, Dose [Inhibitor]: 0, 15 G/L IN DRINKING WATER FOR DURATION OF STUDY BEGINNING 1 D PRIOR TO FIRST CARCINOGEN DOSE (STUDY DURATION: 6 MO), Route [Inhibitor]: ORAL, Species: RAT, Strain/Sex: BD6/FEMALE, Target Tissue: Type of Lesion: LIVER: TUMOR, Dose [Carcinogen]: 80 MG/KG BW 1/WK FOR 10 WK, Promoter: NONE USED) is listed as 100%, 92%, 8%, not significant and the “tumour outcome (control, treated, inhibition, significance)” value (Carcinogen: DIETHYLNITROSAMINE, 55-18-5, Dose [Inhibitor]: 0, 15 G/L IN DRINKING WATER FOR DURATION OF STUDY BEGINNING 2 D POST CARCINOGEN TREATMENT (STUDY DURATION: 6 MO), Route [Inhibitor]: ORAL, Species: RAT, Strain/Sex: BD6/FEMALE, Target Tissue: Type of Lesion: ESOPHAGUS: TUMOR, Dose [Carcinogen]: 80 MG/KG BW 1/WK FOR 10 WK, Promoter: NONE USED) is listed as 35%, 28%, 20%, not significant. For the same molecule, the “tumour outcome (control, treated, inhibition, significance)” value (Carcinogen: DIETHYLNITROSAMINE, 55-18-5, Dose [Inhibitor]: 0, 15 G/L IN DRINKING WATER FOR DURATION OF STUDY BEGINNING 2 D POST CARCINOGEN TREATMENT (STUDY DURATION: 6 MO), Route [Inhibitor]: ORAL, Species: RAT, Strain/Sex: BD6/FEMALE, Target Tissue: Type of Lesion: LIVER: TUMOR, Dose [Carcinogen]: 80 MG/KG BW 1/WK FOR 10 WK, Promoter: NONE USED) was 100%, 100%, 0%, not significant, the “tumour outcome (control, treated, inhibition, significance)” value (Carcinogen: DIETHYLSTILBESTROL, 56-53-1, Dose [Inhibitor]: 1 G/KG OR 2.5 G/KG OF DIET BEGINNING 2 D PRIOR TO FIRST CARCINOGEN IMPLANT AND CONTINUING FOR DURATION OF STUDY (STUDY D, Route [Inhibitor]: ORAL, Species: HAMSTER, Strain/Sex: SYRIAN/MALE, Target Tissue: Type of Lesion: KIDNEY: CARCINOMA, Dose [Carcinogen]: 90% OF 40 MG PELLET (OTHER 10% CHOLESTEROL) 2 D AFTER START OF AGENT TREATMENT AND AGAIN 3 MO LATER, Promoter: NONE USED) was 11/13 (85%), 14/29 (48%), 44%, p<0.05 and the “tumour outcome (control, treated, inhibition, significance)” value (Carcinogen: DIETHYNITROSAMINE, 55-18-5, Dose [Inhibitor]: 0, 3 G/L IN DRINKING WATER FOR DURATION OF STUDY BEGINNING 2 D POST CARCINOGEN TREATMENT (STUDY DURATION: 6 MO), Route [Inhibitor]: ORAL, Species: RAT, Strain/Sex: BD6/FEMALE, Target Tissue: Type of Lesion: LIVER: TUMOR, Dose [Carcinogen]: 80 MG/KG BW 1/WK FOR 10 WK, Promoter: NONE USED) was 100%, 100%, 0%, not significant. The “tumour outcome (control, treated, inhibition, significance)” value (Carcinogen: ETHYLUREA, 625-52-5, SODIUM NITRITE, 7632-00-0, Carcinogen: ETHYLUREA, 625-52-5, SODIUM NITRITE, 7632-00-0, Dose [Inhibitor]: 200 MG/KG BW ADMINISTERED INTRAGASTRICALLY ONCE ON D 15 OF GESTATION SIMULTANEOUSLY WITH CARCINOGEN TREATMENT (STUDY DUR, Route [Inhibitor]: TRANSPLACENTAL, Species: HAMSTER, Strain/Sex: SYRIAN/FEMALE, Target Tissue: Type of Lesion: PERIPHERAL NERVOUS SYSTEM: NEOPLASM, Dose [Carcinogen]: 200 MG ETHYLUREA/KG BW AND 100 MG SODIUM NITRITE/KG BW IG ONCE, Promoter: NONE USED) was 9/18 (50%), 0/18 (0%), 100%, not calculated, the “tumour outcome (control, treated, inhibition, significance)” value (Carcinogen: ETHYLUREA, 625-52-5, SODIUM NITRITE, 7632-00-0, Carcinogen: ETHYLUREA, 625-52-5, SODIUM NITRITE, 7632-00-0, Dose [Inhibitor]: 200 MG/KG BW ADMINISTERED INTRAGASTRICALLY ONCE ON D 15 OF GESTATION SIMULTANEOUSLY WITH CARCINOGEN TREATMENT (STUDY DUR, Route [Inhibitor]: TRANSPLACENTAL, Species: HAMSTER, Strain/Sex: SYRIAN/MALE, Target Tissue: Type of Lesion: PERIPHERAL NERVOUS SYSTEM: NEOPLASM, Dose [Carcinogen]: 200 MG ETHYLUREA/KG BW AND 100 MG SODIUM NITRITE/KG BW IG ONCE, Promoter: NONE USED) was 6/18 (33%), 0/24 (0%), 100%, not calculated and the “tumour outcome (control, treated, inhibition, significance)” value (Carcinogen: FIBERGLASS DUST, Dose [Inhibitor]: 400 MG/KG BW 1/3 D FOR 10 TREATMENTS STARTING 3 D POST CARCINOGEN TREATMENT (STUDY DURATION: 90 D), Route [Inhibitor]: INTRAPERITONEAL, Species: MOUSE, Strain/Sex: STRAIN-A/MALE, Target Tissue: Type of Lesion: LUNG: TUMOR, Dose [Carcinogen]: 300 MG IN 100 G OF STERILIZED PINE SAWDUST BEDDING FOR 30 D, Promoter: NONE USED) was 6/12 (50%), 1/12 (8%), 84%, not calculated. For the same molecule, the “tumour outcome (control, treated, inhibition, significance)” value (Carcinogen: N,N-DIETHYLNITROSAMINE, 55-18-5, Dose [Inhibitor]: 4.5 MG/100 KG DIET FOR 58 WK STARTING SIMULTANEOUSLY WITH CARCINOGEN AND PROMOTER TREATMENT AND CONTINUING FOR DURATION, Route [Inhibitor]: ORAL, Species: HAMSTER, Strain/Sex: SYRIAN/MALE, Target Tissue: Type of Lesion: LARYNX: TUMORS, Dose [Carcinogen]: 10 MG (TOTAL DOSE) IN 0.9% SALINE 1/WK FOR 12 WK, Promoter: CIGARETTE SMOKE) was 20/30 (67%), 17/30 (57%), 15%, not significant, the “tumour outcome (control, treated, inhibition, significance)” value (Carcinogen: N,N-DIETHYLNITROSAMINE, 55-18-5, Dose [Inhibitor]: 4.5 MG/100 KG DIET FOR 58 WK STARTING SIMULTANEOUSLY WITH CARCINOGEN AND PROMOTER TREATMENT AND CONTINUING FOR DURATION, Route [Inhibitor]: ORAL, Species: HAMSTER, Strain/Sex: SYRIAN/MALE, Target Tissue: Type of Lesion: NASAL CAVITY: TUMORS, Dose [Carcinogen]: 10 MG (TOTAL DOSE) IN 0.9% SALINE 1/WK FOR 12 WK, Promoter: CIGARETTE SMOKE) was 14/29 (48%), 8/30 (27%), 44%, not significant and the “tumour outcome (control, treated, inhibition, significance)” value (Carcinogen: N,N-DIETHYLNITROSAMINE, 55-18-5, Dose [Inhibitor]: 4.5 MG/100 KG DIET FOR 58 WK STARTING SIMULTANEOUSLY WITH CARCINOGEN AND PROMOTER TREATMENT AND CONTINUING FOR DURATION, Route [Inhibitor]: ORAL, Species: HAMSTER, Strain/Sex: SYRIAN/MALE, Target Tissue: Type of Lesion: TRACHEA: TUMORS, Dose [Carcinogen]: 10 MG (TOTAL DOSE) IN 0.9% SALINE 1/WK FOR 12 WK, Promoter: CIGARETTE SMOKE) was 30/30 (100%), 29/30 (97%), 3%, not significant. For the same molecule, the “tumour outcome (control, treated, inhibition, significance)” value (Carcinogen: N-(4-(5-NITRO-2-FURYL)-2-THIAZOLYL)FORMAMIDE, 24554-26-5, Dose [Inhibitor]: 250 MG/100 CC DRINKING WATER STARTING SIMULTANEOUSLY WITH CARCINOGEN TREATMENT AND CONTINUING FOR DURATION OF STUDY (STU, Route [Inhibitor]: ORAL, Species: MOUSE, Strain/Sex: C3H/FEMALE, Target Tissue: Type of Lesion: URINARY BLADDER: TRANSITIONAL CELL CARCINOMA, Dose [Carcinogen]: 0.1% IN DIET FOR DURATION OF STUDY, Promoter: NONE USED) was 41/41 (100%), 12/13 (92%), 8%, p<0.7.
